Laboratory results: EP0845266A2, “Sweet whey concentrate containing antioxidant compositions” (MK-Produktkontor GmbH, priority 1996, dated 1998)

Molecular target: T1, Myeloperoxidase (MPO) (Homo sapiens, UniProt P05164)
T1 sequence (P05164 49-745): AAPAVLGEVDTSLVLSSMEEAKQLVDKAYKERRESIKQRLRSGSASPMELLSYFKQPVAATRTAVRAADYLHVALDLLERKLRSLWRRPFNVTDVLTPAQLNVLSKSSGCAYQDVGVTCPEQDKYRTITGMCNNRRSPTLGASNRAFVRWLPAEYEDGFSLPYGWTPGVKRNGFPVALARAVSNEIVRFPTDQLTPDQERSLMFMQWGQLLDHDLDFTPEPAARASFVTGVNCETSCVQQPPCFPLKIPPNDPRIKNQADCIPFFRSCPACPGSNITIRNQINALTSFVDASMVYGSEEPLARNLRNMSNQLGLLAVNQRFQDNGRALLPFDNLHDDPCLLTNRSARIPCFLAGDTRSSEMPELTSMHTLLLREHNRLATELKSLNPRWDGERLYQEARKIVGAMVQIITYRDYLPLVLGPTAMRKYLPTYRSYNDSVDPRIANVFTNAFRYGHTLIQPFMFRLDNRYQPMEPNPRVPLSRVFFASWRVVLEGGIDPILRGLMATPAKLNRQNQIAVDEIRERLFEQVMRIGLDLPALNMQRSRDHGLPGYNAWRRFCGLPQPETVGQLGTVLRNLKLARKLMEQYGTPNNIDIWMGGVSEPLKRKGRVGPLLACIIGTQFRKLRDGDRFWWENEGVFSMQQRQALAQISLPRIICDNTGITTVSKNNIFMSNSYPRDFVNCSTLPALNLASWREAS
Assay: Myeloperoxidase reaction: MPO-catalysed formation of HOCl, measured as ethylene release from ACC by gas chromatography
Assay type: biochemical
Conditions: CAR, in mixtures SMK 3 mg im Ansatz, 30 min, 37 °C, pH 5,7, read-out: % Hemmung; for inhibition at 100 µM: 0,1 mM AN; for inhibition at 1000 µM: 1,0 mM AN
Source text: Die Inhibitionswirkung wurde in einem In-vitro-Teststystem geprüft, das die oxidativen Prozesse während eine Entzündung simulieren soll.
Myeloperoxidase (MPO) wird von aktivierten Leukozyten während der Degranulation in das Phagosom und das umliegende Gewebe abgegeben. Das Enzym katalysiert die Bildung von HOCl aus H2O2 und Chlorid. Durch Messung der HOCl-Konzentration in dem Reaktionssystem kann das Ausmaß der Inhibition bestimmt werden. Hypochlorit (HOCl) spaltet spezifisch Aminocyclopropancarbonsäure (ACC), wobei Ethylen entsteht.
Dieses wiederum kann gaschromatographisch identifiziert werden.
Der Einfluß einer Mischung aus Süßmolkekonzentrat (SMK) und Anserin bzw. Carnosin sowie der einzelnen Komponenten in den in Tabelle 1 angegebenen Konzentrationen auf die MPO-katalysierte Bildung von HOCl wurde untersucht. Tabelle 1
Es wurde folgender Ansatz verwendet: 0,15 M NaCl, 25 µM H2O2, 0,1 E MPO, 0,1 M Phosphatpuffer mit einem pH-Wert von 5,7 und 1 mM ACC. Die Inkubationsdauer beträgt 30 Minuten bei 37 °C. Die Ethylen-Freisetzungsrate eines Ansatzes ohne Zugabe potentieller Inhibitorstoffe entspricht einer Grundrate von 100% (0% Hemmung).

Row | Compound | inhibition at 100 µM | inhibition at 1000 µM
1 | Cn1cncc1C[C@H](NC(=O)CCN)C(=O)O [AN, Anserin] | 23% | 84%
2 | NCCC(=O)N[C@@H](Cc1cnc[nH]1)C(=O)O [CAR, Carnosin] | 23% | 86%
